# Test results published in PMC8315922, “In Vitro Identification and In Vivo Confirmation of Inhibitors for Sweet Potato Chlorotic Stunt Virus RNA Silencing Suppressor, a Viral RNase III” (Journal of Virology, 2021).
# Key:
# CSR3 = molecular target: T1, CSR3 (Sweet potato chlorotic stunt virus, UniProt Q8JJW8); assay: Binding affinity assay using SPR; details: for Kd: unit inferred, read-out: Steady State Affinity
# T1 sequence (Q8JJW8 1-228): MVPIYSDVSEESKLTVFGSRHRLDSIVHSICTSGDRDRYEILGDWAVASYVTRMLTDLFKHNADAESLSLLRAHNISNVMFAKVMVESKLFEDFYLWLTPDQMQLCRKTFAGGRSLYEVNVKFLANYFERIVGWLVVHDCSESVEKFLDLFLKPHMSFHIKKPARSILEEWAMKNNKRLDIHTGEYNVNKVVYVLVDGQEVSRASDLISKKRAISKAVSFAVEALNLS
# Procedure: Binding affinity assays were first carried out with the 99 commercial compounds using the MST method.
# CSR3 was purified as described above and stored in PBS buffer. SPR was performed on a BiacoreT100 instrument (GE Healthcare) using a sensor S CM5 chip (GE Healthcare). CSR3 (10 ng/μl) was immobilized using the standard amine-coupling method according to the manufacturer’s instructions with immobilization buffer (10 mM sodium acetate [pH 4]); the final response unit (RU) value was 11,459. Compounds at a single concentration (100 μM) or consisting of 2-fold serial dilutions (3 μM to 200 μM) were flowed over the sensor surface using PBS buffer with 0.01 M HEPES, 0.05% surfactant P20, and 2% DMSO. […] To eliminate bulk interference by DMSO, a solvent correction consisting of DMSO at concentrations ranging from 1.5% to 2.8% was carried out for every 30 samples. Steady-state affinity (KD) values were determined using BiacoreT100 Evaluation software, v.2.04 (GE Healthcare).
# [1] = molecular target: CSR3 (RNase III of SPCSV) (Sweet potato chlorotic stunt virus, UniProt Q8JJW8); assay: Kinetic-based HTS (FRET, labeled 22-bp siRNA cleavage), one concentration; type: biochemical; details: compound 10 μM, 375 nM siRNA, 37°C
# From the text: Based on the catalytic activity of CSR3 on 22-bp siRNA, our kinetic-based HTS assay was designed using distance-dependent FRET technology. Specifically, one strand of siRNA, as a substrate, was labeled with a fluorescent dye (6-carboxyfluorescein [FAM]) at the 5′ end and a quencher (black hole quencher 1 [BHQ1]) at the 3′ end. The initial reaction rate of CSR3 was quantified using the slope of raw fluorescence under an excitation/emission spectrum at 485/520 nm (Fig. 3A). […] In this study, a total of 6,622 compounds (including 6,400 selected from Glide docking and 222 empirically selected compounds for preliminary assay setup) were screened using kinetic-based HTS at a final concentration of 10 μM. All 384-well screening plates contained 32 negative (with CSR3 [i.e., the substrate was successfully cleaved]) and 32 positive (without CSR3 [i.e., the substrate remained intact]) control reaction mixtures. To evaluate the quality of the HTS assay, the Z-factor (Z′) parameter was calculated using the reaction rates of the positive and negative controls ([30]). […]
# The HTS assay was designed based on FRET using a 22-bp siRNA (forward sequence, […]; reverse sequence, […]) with a 2-nucleotide (nt) 3′ overhang labeled with the fluorescent dye 6-carboxyfluorescein (FAM) and a black hole quencher (BHQ1) on the sense strand (Metabion, Munich, Germany). […] The plates were read with a PHERAstar FS reader (BMG Labtech, Ortenberg, Germany).
# (§1) For HTS, the activity of CSR3 was calculated by measuring the change in fluorescence as a function of the reaction time using MARS Data Analysis software (BMG Labtech). To evaluate the CSR3 inhibition efficiency of individual compounds, the PI of each compound was calculated using the slope values for the sample, positive control, and negative control according to the following equation: PI = 100 × [1 − (sample − positive)/(negative − positive)]%. IC50 and DSS values were calculated using concentration-specific PI values according to a previous study ([31]). Relative gene expression was calculated using the classical 2^−ΔΔ^CT method ([63]).
# SPCSV = details: plants in soil, 10 μM foliar spray twice a week for 1 month, vs water-treated
# Procedure: (§2) Compounds were administered by regular foliar spray over 1 month.
# (§3) Sweetpotato plants cultivar 'Huachano' (accession CIP420065) were side-graft inoculated with both SPFMV (East African strain isolate Nam1) and SPCSV-Ug (East African serotype 2) as described previously ([62]). Plantlets were propagated by taking single-node stems grown in a plant culture medium ([33]). Next, plantlets with newly formed roots were transferred to glass tubes (18 by 150 mm) containing 10 ml of medium supplemented with either 50 μM compound (diluted in DMSO; final DMSO concentration, 0.1%) or only 0.1% DMSO as a control. For plant experiments in soil, plantlets were transferred to pots (6 by 6 by 10 cm) filled with a mixture of sand, humus, and washed soil. After 1 week, plants were treated by foliar spraying using either individual compounds at a single concentration (10 μM) (treatment) or water (control/mock) twice a week for 1 month. All plants were grown at 22°C with 60% humidity and a 16-h light/8-h dark photoperiod for 28 days in culture medium and for 41 days in soil. The Finnish National Plant Phenotyping Infrastructure (NaPPI) was used to monitor plant viral disease symptoms as described in our previous study ([33]). Four compounds were tested with the phenotyping platform in two independent batches, each of which included five biological replicates.
# (§4) Leaf samples were collected from plants grown in culture medium or soil for 28 or 41 days, respectively, and frozen in liquid nitrogen. Total RNA was extracted using the Spectrum plant total RNA kit (Sigma-Aldrich). First-strand cDNA was synthesized using the Transcriptor first-strand cDNA synthesis kit (Roche, Basel, Switzerland). Gene expression was measured in a final volume of 10 μl (containing 2 μl 10-fold-diluted cDNA, 5 μl SYBR green I master mix [Roche], and 2.5 μM primers) using the LightCycler 480 instrument II (Roche). All RT-qPCR experiments were conducted in triplicate on three and five biological replicates from plants grown in culture medium and soil, respectively. The primer list can be found in our previous study ([33]).
# as §1
# SPFMV = details: plants in soil, 10 μM foliar spray twice a week for 1 month, vs water-treated
# Procedure: as §2, §3, §4, §1
# [2] = tested on: human enzymes or bacterial proteins; parameters: method as in earlier work; details: ref PubChem https://pubchem.ncbi.nlm.nih.gov/compound/7114450#section=Biological-Test-Results; cited from earlier work
# [3] = SPR dose-response 3 μM to 200 μM, 25°C, numbers match M (cf. Fig 5A)
compound,measurement,setting,value
O=C1c2c(O)ccc(O)c2C(=O)c2c(NCCNCCO)ccc(NCCNCCO)c21 [FIMM000490],Kd,CSR3; [3],137 nM
same,PI values (percentage of inhibition),[1],102.062%
COc1cc(C=C2C(=O)NC(=S)NC2=O)ccc1OCc1ccccc1[N+](=O)[O-] [FIMM101864],Steady State Affinity,"CSR3; SPR dose-response 3 μM to 200 μM, 25°C, unit not given, numbers match M (cf. Fig 5A)",non binder
same,PI values (percentage of inhibition),[1],98.4382%
O=C(O)c1ccc(C2Nc3c(Br)cccc3C3C=CCC32)cc1 (stereo not drawn) [FIMM022230],log2 fold change in coat protein expression of SPCSV,SPCSV,−0.58
same,log2 fold change in coat protein expression of SPFMV,SPFMV,−0.73
same,KD (SPR),"CSR3; steady-state affinity, Fig 5A",millimolar range
same,activity in inhibitor screens for human enzymes or bacterial proteins,[2],inactive
Cc1ccc(C2Nc3ccc(C(=O)O)cc3C3C=CCC32)cc1 (stereo not drawn) [FIMM031755],log2 fold change in coat protein expression of SPCSV,SPCSV,−1.30
same,log2 fold change in coat protein expression of SPFMV,SPFMV,−1.33
same,Kd,CSR3; [3],3760 nM
same,activity in inhibitor screens for human enzymes or bacterial proteins,[2],affected the activity of chain B of the human cytokine/receptor binary complex
